According to PMC12706802, “Ortho-Hydroxyanilides: Slow-Acting, Selective Histone Deacetylase 1/2 Inhibitors Suitable for Photocaging Applications” (ACS Pharmacology & Translational Science, 2025):
pEC50: −log10 of the molar value.

How the values were obtained:
[1] = test system: HEK293 cells; assay: CellTiter-Glo 2.0 cell viability assay; assay type: cell-based; conditions: Homo sapiens; for pEC50: 120 h incubation, nontumorigenic cell line
Protocol: (§1) To evaluate the cytotoxicity of the selected HDAC inhibitors, compounds were tested for their antiproliferative activity against MV-3 and MDA-MB-231 cells using the MTT assay. […] (Promega; Walldorf, Germany) was utilized to assess the antiproliferative effects. MM.1S and HEK293 cells were seeded at a density of 1000 cells per well in 384-well plates, with each well containing 22.5 μL of volume. […] Subsequently, cells were stimulated with 2.5 μL of the dilution series of the test compounds. Following compound exposure, the plates were incubated for 120 h in the incubator set at 37 °C with 5% CO2. Post 120 h of incubation, 25.0 μL of CellTiter-Glo reagent was dispensed into each well and the plates were incubated at the room temperature for 10 min. Luminescence was then measured using a Spark multimode microplate reader (Tecan Group AG, Maennedorf, Swiss). Data were normalized against controls: wells treated with 0.5% DMSO were set as 100% viable, while those treated with 10% DMSO were considered completely nonviable (0% viability).

[2] = test system: MM.1S cells; assay: CellTiter-Glo 2.0 cell viability assay; assay type: cell-based; conditions: Homo sapiens, MM1.S; 120 h incubation
Protocol: as §1

[3] = biological target: HDAC1 (Homo sapiens, UniProt Q13547); assay: Binding kinetics via the progression method (continuous HDAC assay); assay type: biochemical; set-up: purchased BPS Bioscience Inc. #50051; conditions: 45 min, 28 °C
Sequence of HDAC1 (Q13547 whole entry): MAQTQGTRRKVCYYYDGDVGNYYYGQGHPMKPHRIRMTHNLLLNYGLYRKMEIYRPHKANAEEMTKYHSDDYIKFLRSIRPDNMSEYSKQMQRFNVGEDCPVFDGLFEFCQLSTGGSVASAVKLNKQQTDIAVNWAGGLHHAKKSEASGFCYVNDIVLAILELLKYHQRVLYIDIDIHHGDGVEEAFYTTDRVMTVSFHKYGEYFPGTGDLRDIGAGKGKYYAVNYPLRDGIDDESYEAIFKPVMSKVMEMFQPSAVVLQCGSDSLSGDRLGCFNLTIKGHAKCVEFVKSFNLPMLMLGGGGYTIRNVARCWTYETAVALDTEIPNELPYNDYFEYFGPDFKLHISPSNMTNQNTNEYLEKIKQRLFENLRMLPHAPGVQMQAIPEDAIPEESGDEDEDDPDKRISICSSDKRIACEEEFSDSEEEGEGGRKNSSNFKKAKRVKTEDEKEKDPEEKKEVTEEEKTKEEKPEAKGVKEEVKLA
Protocol: To this end, HDAC1, the substrate, and trypsin were incubated directly with the inhibitor at various concentrations and fluorescence was recorded continuously for 45 min. […] By plotting the ratio of the deacetylation rate in the presence of the inhibitor (v i) to the rate in absence of any inhibitor (v 0) as a function of the inhibitor concentration and fitting the data to an appropriate model (eq 3), the equilibrium […] K i was determined (Figure ).
To investigate the binding mode of both compounds, we performed molecular docking studies. Specifically, ST13 was docked into HDAC2 (PDB ID: 3MAX), a cocrystal structure containing an HDAC inhibitor with an ortho-aminoanilide ZBG and a phenyl group as the FPU.
Appropriate test compound concentrations were chosen based on the previously determined IC50 values. […] Each progression curve was fitted to either obtain the apparent first-order rate constant k obs (eq ) or the linear conversion rates v i and v 0 (eq ). For fast-on/fast-off inhibitors, the ratio v i/v 0 was plotted against the corresponding inhibitor concentrations.

[4] = test system: Ac-histone H3 (class I HDACs); assay: Immunoblot analysis of MV-3 cell lysates incl. wash out; assay type: cell-based, human; conditions: for histone H3 acetylation after wash out (immunoblot): MV-3, 5 μM for 48 h, then up to 6 h without inhibitor; for acetylation level of histone H3 (immunoblot): MV-3, 5 μM, 24–72 h, substantial increase after 72 h
Protocol: The impact on the acetylation levels of the HDAC substrates Ac-histone H3 (class I HDACs) and Ac-α-tubulin (HDAC6) was analyzed by immunoblot analysis.
6 Immunoblot analysis of MV-3 cell lysates. […] Representative images from at least three replicates are shown. DMSO (0.025%) was used as vehicle control and GAPDH as loading control.
After that, cells were treated with a concentration of 5 μM of HDAC inhibitor or vehicle (DMSO) for additional 24 h, 48 h or 72 h. For cell lysis the cells were initially washed with PBS and detached using a scraper. The cells were then centrifuged at 1200 rpm for 4 min at 4 °C, followed by two additional washing steps. After that, the cell pellet was resuspended in 100 μL of freshly prepared lysis buffer and incubated on ice for 30 min with vortexing every 10 min. The lysis buffer consisted of Invitrogen cell extraction buffer (10 mM Tris, pH 7.4, 100 mM NaCl, […], […], 1 mM NaF, 20 mM Na4P2O7, 2 mM Na3VO4, 1% Triton × −100, 10% glycerol, 0.1% SDS, 0.5% deoxycholate; Catalog# FNN0011, Thermo Fisher Scientific Inc., Waltham, MA, USA), supplemented with 0.1 mM PMSF (Catalog# 10837091001, Sigma-Aldrich, St. Louis, MO, USA) and Halt Protease Inhibitor (100×) (Catalog# 78429, Life Technologies GmbH Carlsbad, CA, USA). Finally, the samples were centrifuged at 14,000 rpm and 4 °C for 30 min and the supernatant was collected. Protein quantification was performed by using BCA protein assay reagents (Catalog# 23225, Thermo Fisher Scientific Inc., Waltham, MA, USA). Lysates were mixed with Laemmli sample buffer 2× concentrate (Catalog# S3401-10VL, Sigma-Aldrich, St. Louis, MO, USA) to a protein concentration of 1.25 μg/μL and denatured at 95 °C for 5 min. Subsequently, SDS-PAGE was performed with 2–20% Mini-PROTEAN TGX stain-free gels (Catalog# 456809, Bio-Rad, Hercules, CA, USA) at 200 V for 45 min. Proteins were then transferred to a Trans-Blot Turbo-PVDF membrane (Catalog# 1704156, Bio-Rad, Hercules, CA, USA) with the Trans-Blot Turbo Transfer System (Catalog# 1704150, Bio-Rad, Hercules, CA, USA) at 25 V for 5 min. The membrane was blocked with a solution of 5% milk powder in TBST (Tris-buffered saline-Tween 20 0.2%) for 60 min at room temperature. After three washing cycles for 10 min with TBST, the membrane was incubated with the respective antibody and a mouse anti-GAPDH antibody (Catalog# T0004, Affinity Biosciences, Cincinnati, OH, USA; 1:20,000 dilution) at room temperature for 60 min and 4 °C overnight. […] After washing off the secondary antibody, protein bands were detected via chemiluminescence using Clarity Western ECL substrate (Catalog# 1705061, Bio-Rad, Hercules, CA, USA). […]

SMILES	pEC50 [1]	pEC50 [2]	binding mechanism at HDAC1 (progression curves, kobs versus inhibitor concentration) [3]	histone H3 acetylation after wash out (immunoblot) [4]	acetylation level of histone H3 (immunoblot) [4]	inhibition at 5 µM ([1]; at 5.00 μM, 120 h, read-out: inhibition at the stated concentration, HEK293 (CellTiter-Glo)) [%]
CC(=O)Nc1ccc(C(=O)Nc2cc(-c3cccs3)ccc2N)cc1 [Cpd-60, reference compound]	5.82	6.95	induced fit slow-binding mechanism	persistent histone H3 acetylation	hyperacetylation of histone H3	
CC(=O)Nc1ccc(C(=O)Nc2cc(-c3ccccc3)ccc2O)cc1 [ST13, 4-Acetamido-N-(4-hydroxy-[1,1′-biphenyl]-3-yl)-benzamide]	< 5.30	6.70	induced fit slow-binding mechanism	persistent histone H3 acetylation	hyperacetylation of histone H3	< 25
